Assay results reported in ChEMBL document CHEMBL5154747, “Discovery of new carbonic anhydrase IX inhibitors as anticancer agents by toning the hydrophobic and hydrophilic rims of the active site to encounter the dual-tail approach” (Eur J Med Chem, 2022).

Assays:
Hs-578T = test: Anticancer activity against human Hs-578T cells assessed as cell growth inhibition at 10 uM incubated for 48 hrs by SRB assay relative to control; type: functional; settings: read-out: GI
HOP-62 = test: Anticancer activity against human HOP-62 cells assessed as cell growth inhibition at 10 uM incubated for 48 hrs by SRB assay relative to control; type: functional; settings: read-out: GI
BT-549 = test: Anticancer activity against human BT-549 cells assessed as cell growth inhibition at 10 uM incubated for 48 hrs by SRB assay relative to control; type: functional; settings: read-out: GI
SNB-75 = test: Anticancer activity against human SNB-75 cells assessed as cell growth inhibition at 10 uM incubated for 48 hrs by SRB assay relative to control; type: functional; settings: read-out: GI
SN12C = test: Anticancer activity against human SN12C cells assessed as cell growth inhibition at 10 uM incubated for 48 hrs by SRB assay relative to control; type: functional; settings: read-out: GI
Malme-3M = test: Anticancer activity against human Malme-3M cells assessed as cell growth inhibition at 10 uM incubated for 48 hrs by SRB assay relative to control; type: functional; settings: read-out: GI
MDA-MB-468 = test: Anticancer activity against human MDA-MB-468 cells assessed as cell growth inhibition at 10 uM incubated for 48 hrs by SRB assay relative to control; type: functional; settings: read-out: GI
SK-MEL-5 = test: Anticancer activity against human SK-MEL-5 cells assessed as cell growth inhibition at 10 uM incubated for 48 hrs by SRB assay relative to control; type: functional; settings: read-out: GI
CAKI-1 = test: Anticancer activity against human CAKI-1 cells assessed as cell growth inhibition at 10 uM incubated for 48 hrs by SRB assay relative to control; type: functional; settings: read-out: GI
RXF 393 = test: Anticancer activity against human RXF 393 cells assessed as cell growth inhibition at 10 uM incubated for 48 hrs by SRB assay relative to control; type: functional; settings: read-out: GI
ACHN = test: Anticancer activity against human ACHN cells assessed as cell growth inhibition at 10 uM incubated for 48 hrs by SRB assay relative to control; type: functional; settings: read-out: GI
OVCAR-3 = test: Anticancer activity against human OVCAR-3 cells assessed as cell growth inhibition at 10 uM incubated for 48 hrs by SRB assay relative to control; type: functional; settings: read-out: GI
TK-10 = test: Anticancer activity against human TK-10 cells assessed as cell growth inhibition at 10 uM incubated for 48 hrs by SRB assay relative to control; type: functional; settings: read-out: GI
KM12 = test: Anticancer activity against human KM12 cells assessed as cell growth inhibition at 10 uM incubated for 48 hrs by SRB assay relative to control; type: functional; settings: read-out: GI
NCI-H23 = test: Anticancer activity against human NCI-H23 cells assessed as cell growth inhibition at 10 uM incubated for 48 hrs by SRB assay relative to control; type: functional; settings: read-out: GI
SR = test: Anticancer activity against human SR cells assessed as cell growth inhibition at 10 uM incubated for 48 hrs by SRB assay relative to control; type: functional; settings: read-out: GI
NCI-H522 = test: Anticancer activity against human NCI-H522 cells assessed as cell growth inhibition at 10 uM incubated for 48 hrs by SRB assay relative to control; type: functional; settings: read-out: GI
HCC 2998 = test: Anticancer activity against human HCC 2998 cells assessed as cell growth inhibition at 10 uM incubated for 48 hrs by SRB assay relative to control; type: functional; settings: read-out: GI
HT-29 = test: Anticancer activity against human HT-29 cells assessed as cell growth inhibition at 10 uM incubated for 48 hrs by SRB assay relative to control; type: functional; settings: read-out: GI
SK-MEL-28 = test: Anticancer activity against human SK-MEL-28 cells assessed as cell growth inhibition at 10 uM incubated for 48 hrs by SRB assay relative to control; type: functional; settings: read-out: GI
SK-MEL-2 = test: Anticancer activity against human SK-MEL-2 cells assessed as cell growth inhibition at 10 uM incubated for 48 hrs by SRB assay relative to control; type: functional; settings: read-out: GI
IGROV-1 = test: Anticancer activity against human IGROV-1 cells assessed as cell growth inhibition at 10 uM incubated for 48 hrs by SRB assay relative to control; type: functional; settings: read-out: GI
MDA-MB-435 = test: Anticancer activity against human MDA-MB-435 cells assessed as cell growth inhibition at 10 uM incubated for 48 hrs by SRB assay relative to control; type: functional; settings: read-out: GI
UACC-257 = test: Anticancer activity against human UACC-257 cells assessed as cell growth inhibition at 10 uM incubated for 48 hrs by SRB assay relative to control; type: functional; settings: read-out: GI
HCT-116 = test: Anticancer activity against human HCT-116 cells assessed as cell growth inhibition at 10 uM incubated for 48 hrs by SRB assay relative to control; type: functional; settings: read-out: GI
OVCAR-4 = test: Anticancer activity against human OVCAR-4 cells assessed as cell growth inhibition at 10 uM incubated for 48 hrs by SRB assay relative to control; type: functional; settings: read-out: GI
HOP-92 = test: Anticancer activity against human HOP-92 cells assessed as cell growth inhibition at 10 uM incubated for 48 hrs by SRB assay relative to control; type: functional; settings: read-out: GI
OVCAR-5 = test: Anticancer activity against human OVCAR-5 cells assessed as cell growth inhibition at 10 uM incubated for 48 hrs by SRB assay relative to control; type: functional; settings: read-out: GI
K562 = test: Anticancer activity against human K562 cells assessed as cell growth inhibition at 10 uM incubated for 48 hrs by SRB assay relative to control; type: functional; settings: read-out: GI
SK-OV-3 = test: Anticancer activity against human SK-OV-3 cells assessed as cell growth inhibition at 10 uM incubated for 48 hrs by SRB assay relative to control; type: functional; settings: read-out: GI
HL-60(TB) = test: Anticancer activity against human HL-60(TB) cells assessed as cell growth inhibition at 10 uM incubated for 48 hrs by SRB assay relative to control; type: functional; settings: read-out: GI
SNB-19 = test: Anticancer activity against human SNB-19 cells assessed as cell growth inhibition at 10 uM incubated for 48 hrs by SRB assay relative to control; type: functional; settings: read-out: GI
NCI-H460 = test: Anticancer activity against human NCI-H460 cells assessed as cell growth inhibition at 10 uM incubated for 48 hrs by SRB assay relative to control; type: functional; settings: read-out: GI
MDA-MB-231 = test: Anticancer activity against human MDA-MB-231 cells assessed as cell growth inhibition at 10 uM incubated for 48 hrs by SRB assay relative to control; type: functional; settings: read-out: GI
Carbonic anhydrase 9 = Carbonic anhydrase 9 (Homo sapiens, UniProt Q16790); test: Inhibition of recombinant human CA 9 preincubated for 15 mins by phenol red dye based stopped flow CO2 hydration assay
SF-295 = test: Anticancer activity against human SF-295 cells assessed as cell growth inhibition at 10 uM incubated for 48 hrs by SRB assay relative to control; type: functional; settings: read-out: GI
T47D = test: Anticancer activity against human T47D cells assessed as cell growth inhibition at 10 uM incubated for 48 hrs by SRB assay relative to control; type: functional; settings: read-out: GI
SF-539 = test: Anticancer activity against human SF-539 cells assessed as cell growth inhibition at 10 uM incubated for 48 hrs by SRB assay relative to control; type: functional; settings: read-out: GI
MOLT-4 = test: Anticancer activity against human MOLT-4 cells assessed as cell growth inhibition at 10 uM incubated for 48 hrs by SRB assay relative to control; type: functional; settings: read-out: GI

SMILES: NS(=O)(=O)c1ccc(Nc2nc(N/N=C/c3ccccn3)nc(Nc3ccccc3)n2)cc1
- inhibition of growth at 10 µM (Hs-578T): 118%
- inhibition of growth at 10 µM (HOP-62): 128%
- inhibition of growth at 10 µM (BT-549): 120%
- inhibition of growth at 10 µM (SNB-75): 125%
- inhibition of growth at 10 µM (SN12C): 97%
- inhibition of growth at 10 µM (Malme-3M): 168%
- inhibition of growth at 10 µM (MDA-MB-468): 129%
- inhibition of growth at 10 µM (SK-MEL-5): 184%
- inhibition of growth at 10 µM (CAKI-1): 125%
- inhibition of growth at 10 µM (RXF 393): 174%
- inhibition of growth at 10 µM (ACHN): 82%
- inhibition of growth at 10 µM (OVCAR-3): 115%
- inhibition of growth at 10 µM (TK-10): 97%
- inhibition of growth at 10 µM (KM12): 95%
- inhibition of growth at 10 µM (NCI-H23): 107%
- inhibition of growth at 10 µM (SR): 87%
- inhibition of growth at 10 µM (NCI-H522): 132%
- inhibition of growth at 10 µM (HCC 2998): 174%
- inhibition of growth at 10 µM (HT-29): 93%
- inhibition of growth at 10 µM (SK-MEL-28): 164%
- inhibition of growth at 10 µM (SK-MEL-2): 182%
- inhibition of growth at 10 µM (IGROV-1): 130%
- inhibition of growth at 10 µM (MDA-MB-435): 184%
- inhibition of growth at 10 µM (UACC-257): 118%
- inhibition of growth at 10 µM (HCT-116): 129%
- inhibition of growth at 10 µM (OVCAR-4): 120%
- inhibition of growth at 10 µM (HOP-92): 146%
- inhibition of growth at 10 µM (OVCAR-5): 90%
- inhibition of growth at 10 µM (K562): 87%
- inhibition of growth at 10 µM (SK-OV-3): 131%
- inhibition of growth at 10 µM (HL-60(TB)): 97%
- inhibition of growth at 10 µM (SNB-19): 90%
- inhibition of growth at 10 µM (NCI-H460): 96%
- inhibition of growth at 10 µM (MDA-MB-231): 129%
- Ki (Carbonic anhydrase 9): 0.0272 µM
- inhibition of growth at 10 µM (SF-295): 100%
- inhibition of growth at 10 µM (T47D): 118%
- inhibition of growth at 10 µM (SF-539): 142%
- inhibition of growth at 10 µM (MOLT-4): 96%

SMILES: NS(=O)(=O)c1ccc(Nc2nc(N/N=C/c3ccc(Cl)cc3)nc(Nc3ccccc3)n2)cc1
- inhibition of growth at 10 µM (Hs-578T): 35%
- inhibition of growth at 10 µM (HOP-62): 16%
- inhibition of growth at 10 µM (BT-549): 25%
- inhibition of growth at 10 µM (SNB-75): < 10%
- inhibition of growth at 10 µM (SN12C): 18%
- inhibition of growth at 10 µM (Malme-3M): 11%
- inhibition of growth at 10 µM (MDA-MB-468): 33%
- inhibition of growth at 10 µM (SK-MEL-5): 30%
- inhibition of growth at 10 µM (CAKI-1): 37%
- inhibition of growth at 10 µM (RXF 393): 111%
- inhibition of growth at 10 µM (ACHN): < 10%
- inhibition of growth at 10 µM (OVCAR-3): 29%
- inhibition of growth at 10 µM (TK-10): < 10%
- inhibition of growth at 10 µM (KM12): 36%
- inhibition of growth at 10 µM (NCI-H23): 12%
- inhibition of growth at 10 µM (SR): 81%
- inhibition of growth at 10 µM (NCI-H522): 20%
- inhibition of growth at 10 µM (HCC 2998): 23%
- inhibition of growth at 10 µM (HT-29): 65%
- inhibition of growth at 10 µM (SK-MEL-28): 24%
- inhibition of growth at 10 µM (SK-MEL-2): 18%
- inhibition of growth at 10 µM (IGROV-1): 33%
- inhibition of growth at 10 µM (MDA-MB-435): 42%
- inhibition of growth at 10 µM (UACC-257): 10%
- inhibition of growth at 10 µM (HCT-116): 55%
- inhibition of growth at 10 µM (OVCAR-4): 16%
- inhibition of growth at 10 µM (HOP-92): < 10%
- inhibition of growth at 10 µM (OVCAR-5): 16%
- inhibition of growth at 10 µM (K562): 40%
- inhibition of growth at 10 µM (SK-OV-3): < 10%
- inhibition of growth at 10 µM (HL-60(TB)): 27%
- inhibition of growth at 10 µM (SNB-19): 18%
- inhibition of growth at 10 µM (NCI-H460): 27%
- inhibition of growth at 10 µM (MDA-MB-231): 13%
- Ki (Carbonic anhydrase 9): 0.0226 µM
- inhibition of growth at 10 µM (SF-295): 41%
- inhibition of growth at 10 µM (T47D): 55%
- inhibition of growth at 10 µM (SF-539): 46%
- inhibition of growth at 10 µM (MOLT-4): 98%
